“And” between values parts separate entries of the source, which are not always exact repeats. Equal values may be shown once.
How the values were obtained:
[1] = Liver concentrations and tissue pharmacokinetics after intravenous C3G; type: in vivo, Wistar rats
Description: Twenty-two male Wistar rats (Rattus Norvegicus, Harlan Italy S.r.l.), of same age (15 weeks), 293–390 g of body weight, were used. The rats were randomly divided into 5 groups, according to the time that elapsed after intravenous administration of the test compound, and one control group. Each time point was represented by four biological replicates. All animals were allowed to acclimate to the animal facility of the University of Trieste for at least 2 week before studies were initiated. The experimental design was vetted and approved by the bioethical committee of the University of Trieste (internal code 140PAS14), according to the provisions of the European Community Council Directive 2010/63/EU[39]. The methods were carried out in accordance with the approved guidelines. The animals (n = 22) were maintained in cages in a room at 23 ± 2 °C, 50–60% humidity with a 12-hour light-dark cycle. The night before the experiment, food was withdrawn from the cages but water was given ad libitum. On the day of the experiment, the rats were anesthetized with intra-peritoneal administration of tiletamine/zolazepam (1:1, 25 mg/kg body weight) and xylazine (10 mg/kg body weight). During anaesthesia (10 min in all cases), the heart and ventilation rate were monitored. The rats were placed on their backs, with the ventral side up and with the legs spread separately on a thermo-isolated support. The penis was extruded by sliding the prepuce downwards. The dorsal penis vein was then seen along both sides of the penis and exactly 10 min after anaesthesia 0.2 mL PBS without (control group) or with (treated group) 668 nmol cyanidin 3-glucoside (C3G) in PBS was injected using a 24-G hypodermic needle. Then the injection site was pressed with a swab for a few seconds, and the glans was encouraged to retract to prevent further bleeding. One min before sacrificing the rats, sodium heparin (0.1 ml, 500 IU) was injected again into the dorsal penis vein, exposed in the same way. […] Blood draining and excision of the organs were carried out according to the literature. In detail, blood was collected from the neck of rats hold upside down, immediately after their decapitation, which happened at the time points sharp. Exsanguination took 5 seconds; laparotomy and excision of the liver and the kidneys took 5 more seconds. The post-decapitation procedures were standardised. Urine was collected through the urinary bladder with a syringe before decapitation. Kidneys, liver and brain were washed with mQ water, immediately frozen in liquid nitrogen and stored at −80 °C.
Immediately after sampling, 5 mL of blood were transferred into ice-cold (−20 °C), deoxygenated aqueous 95% methanol in a ratio 1:9 (v/v). The urine was weighted and transferred into ice-cold, deoxygenated aqueous 95% methanol at a ratio of 1:9 (w/v). Frozen kidneys, liver and brain were grounded under cryogenic conditions (−196 °C) to 5 μm particles in a CryoMill (Retsch, Germany), using a single 25 mm i. d. steel ball (30 seconds, 25/sec frequency). The pulverized tissue was rapidly transferred (without thawing) into ice-cold, deoxygenated aqueous 95% methanol at a ratio of 1:9 (w/v). Cinnamic acid-d5, as internal standard, was dissolved in the aqueous methanol at concentration of 0.1 mg/L for the monitoring of the extraction protocol in biofluids and tissues.
All samples were extracted with an orbital shaker for 10 min at room temperature. The methanol extracts were then centrifuged for 5 min at 3600 rpm at 4 °C, decanted under a stream of nitrogen in 50 mL dark glass vessels and stored at −80 °C. Clean-up of extracted samples in methanol was performed by solid phase extraction (SPE), as previously described. Briefly, 5 mL of extracted samples were evaporated on a rotary evaporator and reconstituted in 10 mL of acidified water. Anthocyanins were extracted by solid-phase adsorption onto a hydrophobic matrix (Sep-Pak C18, 0.35 g, Waters, Milford, MA). […]

[2] = test system: endothelial cell membrane; design: method as in PMID 22387282; conditions: cited from earlier work

OC[C@H]1O[C@@H](Oc2cc3c(O)cc(O)cc3[o+]c2-c2ccc(O)c(O)c2)[C@H](O)[C@@H](O)[C@@H]1O [C3G, Cyanidin-3-O-β-glucoside]
Mean concentration in liver ([1]; 0.25 min after i.v. 668 nmol C3G, mean ± SEM n=4): 56.61 ± 11.79 pmol/g
Mean concentration in liver ([1]; 2 min after i.v. 668 nmol C3G): 19.22 ± 1.99 pmol/g
Mean concentration in liver ([1]; 5 min after i.v. 668 nmol C3G): 20.91 ± 2.61 pmol/g
Mean concentration in liver ([1]; 15 min after i.v. 668 nmol C3G): 11.02 ± 2.24 pmol/g
Mean concentration in liver ([1]; 20 min after i.v. 668 nmol C3G): 5.54 ± 0.33 pmol/g
MTTL (Mean Transit Time in the liver) ([1]; liver): 1.43 min
AUC0-t ([1]; liver, i.v. 668 nmol C3G): 345.3 pmol·min/g and 345.29 pmol·min/g
half-life ([1]; male, Wistar, rat, liver, iv, 668 nmol, read-out: Half-life): 8.15 min
Time frame to pass the endothelial cell membrane [2]: < 1 min

Reference: paper PMC4786809, “Determination of cyanidin 3-glucoside in rat brain, liver and kidneys by UPLC/MS-MS and its application to a short-term pharmacokinetic study” (Scientific Reports, 2016)
